In ChEMBL document CHEMBL1201862, “PubChem BioAssay data set” (2004):
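Each compound was tested at five concentrations against cells in 96-well plates for 48 hours. Abbreviation: GI50, concentration required for 50% inhibition of growth.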 The source made the active and inactive calls. Cut-off read from the data, not from the text of the source: active = GI50 up to about 1.1 µM and inactive = higher.

Experiments:
Assay in all cases: NCI anticancer screen, dose series, 48 h
[1] = test system: OVCAR-4
[2] = test system: HL-60
[3] = test system: SK-MEL-2
[4] = test system: MOLT-4
[5] = test system: HT-29
[6] = test system: HCC 2998
[7] = test system: UO-31
[8] = test system: NCI-H226
[9] = test system: COLO 205
[10] = test system: NCI/ADR-RES
[11] = test system: RXF 393
[12] = test system: SF-295
[13] = test system: OVCAR-3
[14] = test system: KM12
[15] = test system: A549
[16] = test system: NCI-H460
[17] = test system: HOP-92
[18] = test system: SW-620
[19] = test system: A498
[20] = test system: UACC-62

Measured: GI50

COC(=O)c1c(O)ccc2c1c1c(n2-c2ccc(OC)cc2)C(=O)c2ccccc2C1=O
inactive: [1] 18.6 µM | [2] > 100 µM | [3] 26.1 µM | [4] 8.28 µM | [5] 4.14 µM | [6] 3.62 µM | [7] 11.9 µM | [8] 25.5 µM | [9] 1.94 µM | [10] 14.7 µM | [11] 13 µM | [12] 18.7 µM | [13] 22.9 µM | [14] 14.1 µM | [15] 10.1 µM | [16] 5.04 µM | [17] 14.8 µM | [18] 42.3 µM | [19] > 100 µM

CC[C@@H]1CC[C@@H]2[C@H](CC[C@]3(C)[C@@H](O[N+](=O)[O-])CC[C@@H]23)[C@H]1C(C)=O
inactive: [1] 39 µM | [2] 13.5 µM | [4] 24.3 µM | [5] 13.1 µM | [6] 28 µM | [7] 24.6 µM | [8] 26.5 µM | [9] 7.85 µM | [10] 21.8 µM | [11] 28.2 µM | [12] 42.6 µM | [13] 64.1 µM | [14] 17.3 µM | [15] 28.4 µM | [16] 27.4 µM | [17] 21.6 µM | [18] 40.4 µM | [19] 31 µM

C[N+]12C=CC=C1C(N1CCCC1)c1scc(-c3ccc(Br)cc3)c12 (centres undefined)
inactive: [1] 35.3 µM | [3] 6.18 µM | [4] 15.8 µM | [5] 22.2 µM | [6] 12.4 µM | [7] > 100 µM | [8] 3.15 µM | [9] 12.5 µM | [10] > 100 µM | [11] 10.2 µM | [12] 6.4 µM | [20] 19.2 µM | [13] 6.38 µM | [14] 12.1 µM | [15] 74.1 µM | [16] 14.6 µM | [17] 12 µM | [18] 41.2 µM | [19] 47.2 µM

COC(=O)c1cncc2c1CC1C3(C(=O)OC)C=NC(C4C(CO)=CCC43)C21C (centres undefined)
inactive: [1] > 100 µM | [2] > 100 µM | [3] > 100 µM | [4] > 100 µM | [5] > 100 µM | [6] > 100 µM | [7] > 100 µM | [8] > 100 µM | [9] > 100 µM | [10] > 100 µM | [11] > 100 µM | [12] > 100 µM | [14] > 100 µM | [15] > 100 µM | [16] > 100 µM | [17] > 100 µM | [18] > 100 µM | [19] > 100 µM

COC(=O)C12OC(C)(C(CC(=O)OC(C)(C)C)C1=O)C1C(=O)N(c3ccccc3)C(=O)C12 (centres undefined)
inactive: [1] > 100 µM | [3] > 100 µM | [4] > 100 µM | [5] > 100 µM | [6] > 100 µM | [7] > 100 µM | [8] > 100 µM | [9] > 100 µM | [10] > 100 µM | [11] > 100 µM | [12] > 100 µM | [20] > 100 µM | [13] > 100 µM | [14] > 100 µM | [15] > 100 µM | [16] > 100 µM | [17] > 100 µM | [18] > 100 µM | [19] > 100 µM

C=C(C(=O)OC)[C@H]1CC/C(C)=C/CC[C@@](C)(O)C=CC[C@@]2(C)O[C@@H]2C1
inactive: [1] 64.6 µM | [3] 97.1 µM | [4] 12.7 µM | [5] 15.2 µM | [6] 42.1 µM | [7] 21.4 µM | [8] > 100 µM | [9] 13.6 µM | [10] 14.3 µM | [11] 32.4 µM | [12] > 100 µM | [20] 31.9 µM | [13] 17.7 µM | [14] 37.6 µM | [15] 81.3 µM | [16] > 100 µM | [17] 19.1 µM | [18] 28.1 µM | [19] 20.7 µM

O=C(CN1CCCCC1)CC(O)(C(F)(F)F)C(F)(F)F
inactive: [1] > 100 µM | [2] > 100 µM | [3] > 100 µM | [5] > 100 µM | [6] > 100 µM | [7] > 100 µM | [8] > 100 µM | [9] > 100 µM | [10] > 100 µM | [11] > 100 µM | [12] > 100 µM | [20] > 100 µM | [13] > 100 µM | [14] > 100 µM | [15] > 100 µM | [16] > 100 µM | [17] > 100 µM | [18] > 100 µM | [19] > 100 µM

NCCCNc1ccc2c(c1)[n+]([O-])c1ccccc1[n+]2[O-]
inactive: [1] 25 µM | [2] 19.7 µM | [4] 15.7 µM | [5] 28.6 µM | [6] 23.2 µM | [7] 35.3 µM | [8] 12.3 µM | [9] 18.3 µM | [10] > 100 µM | [11] 20.1 µM | [12] 28.8 µM | [20] 17.7 µM | [13] 19.8 µM | [14] 25.4 µM | [15] 31.5 µM | [16] 15.7 µM | [17] 12.7 µM | [18] 33 µM | [19] 17.2 µM

O=C1/C(=C/c2ccccc2)N=C(c2ccccc2)N1C1Nc2cc3c(cc2S1)NC(N1C(=O)/C(=C/c2ccccc2)N=C1c1ccccc1)S3 (centres undefined)
inactive: [1] 51.1 µM | [2] 3.63 µM | [3] 23.6 µM | [4] 4.13 µM | [5] 5.01 µM | [6] 2.04 µM | [7] 47.8 µM | [8] 44.5 µM | [10] 44.6 µM | [11] 18.4 µM | [12] > 100 µM | [13] 37.1 µM | [14] 6.87 µM | [16] 17.9 µM | [17] 2.31 µM | [18] 3.8 µM | [19] 16.9 µM

COc1ccc(OC)c(CNc2ccc(C(=O)O)cc2)c1
inactive: [1] > 100 µM | [2] > 100 µM | [3] > 100 µM | [4] > 100 µM | [5] > 100 µM | [6] > 100 µM | [7] > 100 µM | [8] > 100 µM | [9] > 100 µM | [10] > 100 µM | [20] > 100 µM | [13] > 100 µM | [14] > 100 µM | [15] > 100 µM | [17] > 100 µM | [18] > 100 µM | [19] > 100 µM
